Patent publication US20230027929A1, “MrgprX2 Antagonists and Uses Thereof” (Dermira, Inc., priority 2019, published 2023)

Molecular target: T1, hMrgpMRGPRX2 (Homo sapiens, UniProt Q96LB1)
T1 construct: expressed in transfected cells
T1 sequence (Q96LB1 1-330): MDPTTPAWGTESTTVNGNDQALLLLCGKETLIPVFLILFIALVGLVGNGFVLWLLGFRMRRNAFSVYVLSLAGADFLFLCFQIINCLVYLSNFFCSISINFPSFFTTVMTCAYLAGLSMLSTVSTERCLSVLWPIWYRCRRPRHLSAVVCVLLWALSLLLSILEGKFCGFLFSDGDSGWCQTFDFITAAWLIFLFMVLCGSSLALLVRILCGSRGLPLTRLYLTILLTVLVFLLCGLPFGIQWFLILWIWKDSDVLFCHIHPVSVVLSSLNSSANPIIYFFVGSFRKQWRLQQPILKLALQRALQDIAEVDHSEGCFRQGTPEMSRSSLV
Test: FLIPR intracellular calcium mobilization, antagonist activity in recombinant hMrgpMRGPRX2 expressing cells
Format: cell-based
Conditions: read-out: Human MrgprX2 Antagonist pIC50 (converted)
Description: Potent and selective hMrgpMRGPRX2 compounds have been generated from compounds identified during a high throughput screening (HTS) campaign and followed up with cycles of structure activity based medicinal chemistry efforts. These compounds were characterized in recombinant hMrgpMRGPRX2 expressing cells for their antagonist activity and the potency was confirmed in the human mast cell line LAD-2, where the target is endogenously expressed. The assays used to determine potencies are functional read-out looking at intracellular calcium mobilization using the FLIPR™ technology. In these FLIPR assays, we test the identified compounds using recombinant cellular systems expressing mouse MrgprB2, mouse MrgprA1, gerbil MrgpMRGPRX2 orthologue, Chinese hamster MrgpMRGPRX2 orthologue and cynomolgus monkey MrgpMRGPRX2 orthologue, respectively for orthologue activity.

SMILES	IC50
CC1(C)C(C(=O)Nc2ccc(Oc3cc(F)cc(C#N)c3)cn2)C1(C)C [Compound E042]	3.16 nM
CC1(C)C(C(=O)Nc2ccc(Oc3ccc(F)nc3)cn2)C1(C)C [Compound E056]	5.01 nM
CC1(C)C(C(=O)Nc2ccc(Oc3ccc(C#N)cc3)cn2)C1(C)C [Compound E058]	31.6 nM
CC1(C)C(C(=O)Nc2ccc(Oc3ccnc(F)c3)cn2)C1(C)C [Compound E060]	3.16 nM
CC1(C)C(C(=O)Nc2ccc(Oc3ccc(C#N)cc3F)cn2)C1(C)C [Compound E061]	20 nM
CC1(C)C(C(=O)Nc2ccc(Oc3ccc(C#N)nc3)cn2)C1(C)C [Compound E063]	1260 nM
CC1(C)C(C(=O)Nc2ccc(Oc3ccnc(C#N)c3)cn2)C1(C)C [Compound E065]	355 nM
CC1(C)C(C(=O)Nc2ccc(Oc3cccnc3)cn2)C1(C)C [Compound E066]	30.9 nM
CC1(C)C(C(=O)Nc2ccc(N3CCC(O)C3)cn2)C1(C)C (stereo not drawn) [Compound E070]	1050 nM
COCCOc1ccc(NC(=O)C2C(C)(C)C2(C)C)nc1 [Compound E071]	1100 nM
Cn1cc(Oc2ccc(NC(=O)C3C(C)(C)C3(C)C)nc2)cn1 [Compound E073]	3.63 nM
CC1(C)C(C(=O)Nc2ccc(Oc3cn[nH]c3)cn2)C1(C)C [Compound E074]	257 nM
CC1(C)C(C(=O)Nc2ccc(Oc3cc(F)cc(C(N)=O)c3)cn2)C1(C)C [Compound E075]	501 nM
CC1(C)C(C(=O)Nc2ccc(Oc3ccc(C(N)=O)nc3)cn2)C1(C)C [Compound E076]	1260 nM
CNc1ccc(NC(=O)C2C(C)(C)C2(C)C)nc1 [Compound E079, 2,2,3,3-tetramethyl-N-[5-(methylamino)-2-pyridyl]cyclopropanecarboxamide]	1660 nM
CC(C)(O)COc1ccc(NC(=O)C2C(C)(C)C2(C)C)nc1 [Compound E080, N-[5-(2-hydroxy-2-methyl-propoxy)-2-pyridyl]-2,2,3,3-tetramethyl-cyclopropanecarboxamide]	4370 nM

SMILES	IC50
CC1(C)C(C(=O)Nc2ccc(OCCO)cn2)C1(C)C [Compound E082, N[5-(2-hydroxyethoxy)pyridin-2-yl]-2,2,3,3-tetramethylcyclopropane-l-carboxamide]	4370 nM
CC1(C)C(C(=O)Nc2ccc(OC3COC3)cn2)C1(C)C [Compound E083]	1070 nM
CC1(C)C(C(=O)Nc2ccc(OC3CCOCC3)cn2)C1(C)C [Compound E085]	1000 nM
CC1(C)C(C(=O)Nc2ccc(OCc3cncc(F)c3)cn2)C1(C)C [Compound E086]	204 nM
CC1(C)C(C(=O)Nc2ccc(-n3cc(F)cn3)cn2)C1(C)C [Compound E087]	43.7 nM
CC1(C)C(C(=O)Nc2ccc(-n3ccc(C#N)n3)cn2)C1(C)C [Compound E088]	28.2 nM
CC1(C)C(C(=O)Nc2ccc(-n3nccn3)cn2)C1(C)C [Compound E089]	15.1 nM
CC1(C)C(C(=O)Nc2ccc(-n3ccnn3)cn2)C1(C)C [Compound E090]	3390 nM
CC1(C)C(C(=O)Nc2ccc(-n3ccc(F)n3)cn2)C1(C)C [Compound E091]	8.13 nM
CC1(C)C(C(=O)Nc2ccc(-n3cncn3)cn2)C1(C)C [Compound E092]	8130 nM
CC1(C)C(C(=O)Nc2ccc(OCC(F)(F)F)cn2)C1(C)C [Compound E093, 2,2,3,3-tetramethyl-N-[5-(2,2,2-trifluoroethoxy)-2-pyridyl]cyclopropanecarboxamide]	31.6 nM
CC1(C)C(C(=O)Nc2ccc(N3CCCC3)cn2)C1(C)C [Compound E097]	2.51 nM
CC1(C)C(C(=O)Nc2ccc(N3CCC(F)C3)cn2)C1(C)C (stereo not drawn) [Compound E099]	25.1 nM
CC1(C)C(C(=O)Nc2ccc(N3CCC(F)(F)C3)cn2)C1(C)C [Compound E100]	34.7 nM
CC1(C)C(C(=O)Nc2ccc(Nc3cncc(F)c3)cn2)C1(C)C [Compound E101]	912 nM

Second part, the compound after the results:

IC50	SMILES
200 nM	CC1(C(=O)Nc2ccc(Oc3ccc(F)c(F)c3)cn2)CC1 [Compound E032]
79.4 nM	CC(C)(C)C(=O)Nc1ccc(Oc2ccc(F)c(F)c2)cn1 [Compound E033]
200 nM	O=C(Nc1ccc(Oc2ccc(F)c(F)c2)cn1)C1CC1 [Compound E034]
398 nM	CC(C)(F)C(=O)Nc1ccc(Oc2ccc(F)c(F)c2)cn1 [Compound E035]
5010 nM	CC1(C(=O)Nc2ccc(Oc3ccc(F)c(F)c3)cn2)CCOC1 (stereo not drawn) [Compound E036]
6310 nM	O=C(Nc1ccc(Oc2ccc(F)c(F)c2)cn1)C1CCOC1 (stereo not drawn) [Compound E037]
1000 nM	COC(C)(C)C(=O)Nc1ccc(Oc2ccc(F)c(F)c2)cn1 [Compound E038]
3980 nM	CC(C)(CO)C(=O)Nc1ccc(Oc2ccc(F)c(F)c2)cn1 [Compound E039]
501 nM	COCC(C)(C)C(=O)Nc1ccc(Oc2ccc(F)c(F)c2)cn1 [Compound E040]
158 nM	CC1(C)CC1C(=O)Nc1ccc(Oc2cc(F)cc(C#N)c2)cn1 (stereo not drawn) [Compound E041]
3.98 nM	CC1(C)C[C@@H]1C(=O)Nc1ccc(Oc2ccc(F)c(F)c2)cn1 [Compound E043]
12.6 nM	O=C(Nc1ccc(Oc2ccc(F)c(F)c2)cn1)C1CC12CC2 (stereo not drawn) [Compound E044]
20 nM	O=C(Nc1ccc(Oc2ccc(F)c(F)c2)cn1)[C@H]1C[C@H]1C(F)(F)F [Compound E045]
398 nM	O=C(CC1CC1)Nc1ccc(Oc2ccc(F)c(F)c2)cn1 [Compound E046]
3160 nM	N#C[C@@H]1C[C@@H]1C(=O)Nc1ccc(Oc2ccc(F)c(F)c2)cn1 [Compound E047]
15.8 nM	C[C@@H]1C[C@@H]1C(=O)Nc1ccc(Oc2ccc(F)c(F)c2)cn1 [Compound E048]
25.1 nM	O=C(Nc1ccc(Oc2ccc(F)c(F)c2)cn1)[C@H]1C[C@@H]1C(F)(F)F [Compound E049]
398 nM	N#C[C@H]1C[C@@H]1C(=O)Nc1ccc(Oc2ccc(F)c(F)c2)cn1 [Compound E050]
3980 nM	CC(C)C(=O)Nc1ccc(Oc2cncc(F)c2)cn1 [Compound E051]
501 nM	CC1(C)CC1C(=O)Nc1ccc(Oc2cncc(F)c2)cn1 (stereo not drawn) [Compound E052]
158 nM	Cc1nc(NC(=O)C2CC2(C)C)ccc1Oc1ccc(F)c(F)c1 (stereo not drawn) [Compound E054]
6310 nM	O=C(Nc1ccc(Oc2ccc(F)c(F)c2)cn1)[C@@H]1CCCO1 [Compound E055]

IC50	SMILES
1260 nM	CC1(C)CC1C(=O)Nc1ccc(Oc2ccc(C#N)cc2)cn1 (stereo not drawn) [Compound E057]
200 nM	CC1(C)CC(C(=O)Nc2ccc(Oc3ccc(F)c(F)c3)cn2)C1 [Compound E059]
10 nM	CC1(C)CCC1C(=O)Nc1ccc(Oc2ccc(F)c(F)c2)cn1 (stereo not drawn) [Compound E062]
263 nM	CC1(C)OCCC1C(=O)Nc1ccc(Oc2ccc(F)c(F)c2)cn1 (stereo not drawn) [Compound E068]
1910 nM	CC(C)(C#N)CC(=O)Nc1ccc(Oc2ccc(F)c(F)c2)cn1 [Compound E069]
1910 nM	CC1(C)CC1C(=O)Nc1ccc(Oc2ccnc(F)c2)cn1 (stereo not drawn) [Compound E072]
3980 nM	CC(C)C(=O)Nc1ccc(N2CCCC2)cn1 [Compound E081, 2-methyl-N-(5-pyrrolidin-1-yl-2-pyridyl)propanamide]
1580 nM	CC(C)C(=O)Nc1ccc(OC2CCCC2)cn1 [Compound E084]
3980 nM	CC(C)C(=O)Nc1ccc(Nc2ccccc2)cn1 [Compound E094, N-(5-anilino-2-pyridyl)-2-methyl-propanamide]
3980 nM	CC(C)C(=O)Nc1ccc(N2CCc3ccccc32)cn1 [Compound E095, N-(5-indolin-1-yl-2-pyridyl)-2-methyl-propanamide]
2510 nM	CC(C)C(=O)Nc1ccc(N(C)c2ccccc2)cn1 [Compound E096, 2-methyl-N-[5-(N-methylanilino)-2-pyridyl]propanamide]
87.1 nM	CC1(C)CC1C(=O)Nc1ccc(N2CCCC2)cn1 (stereo not drawn) [Compound E098]
10.7 nM	CCN(C[C@@H](O)C(F)(F)F)C(=O)Nc1ccc(Oc2ccc(F)c(F)c2)cn1 [Compound E102, 3-[5-(3,4-difluorophenoxy)-2-pyridyl]-1-ethyl-1-[(2R)-3,3,3-trifluoro-2-hydroxy-propyl]urea]
1580 nM	C[C@H](O)CN(C)C(=O)Nc1ccc(Oc2cccc(F)c2)cn1 [Compound E103]
126 nM	CC(C)N(C)C(=O)Nc1ccc(Oc2ccc(F)c(F)c2)cn1 [Compound E104]
7940 nM	O=C(Nc1ccc(Oc2ccc(F)c(F)c2)cn1)N1CCCC1 [Compound E105]
316 nM	CN(CC(F)(F)F)C(=O)Nc1ccc(Oc2ccc(F)c(F)c2)cn1 [Compound E106]
6310 nM	CC(C)NC(=O)Nc1ccc(Oc2ccc(F)c(F)c2)cn1 [Compound E107]
631 nM	CN(C(=O)Nc1ccc(Oc2ccc(F)c(F)c2)cn1)C1CC1 [Compound E108]
363 nM	CCN(C[C@H](C)O)C(=O)Nc1ccc(Oc2ccc(F)c(F)c2)cn1 [Compound E109]
5130 nM	CCN(C[C@@H](O)C(F)(F)F)C(=O)Nc1ccc(Oc2cncc(F)c2)cn1 [Compound E110]
57.5 nM	CN(C[C@@H](O)C(F)(F)F)C(=O)Nc1ccc(Oc2ccc(F)c(F)c2)cn1 [Compound E111]
